From ChEMBL document CHEMBL4138120, “Modification of C-seco taxoids through ring tethering and substituent replacement leading to effective agents against tumor drug resistance mediated by βIII-Tubulin and P-glycoprotein (P-gp) overexpressions” (Eur J Med Chem, 2017)
Values belong to the compound of their own block, whether it stands above or below them.

What was measured:
[1] = Resistance index, ratio of IC50 for human Hela-beta3 cells to IC50 for human HeLa cells; assay type: functional
HeLa [2] = assay: Cytotoxicity against human HeLa cells assessed as decrease in cell viability after 48 hrs by MTT assay; assay type: functional, cell-based
[3] = Cytotoxicity against human Hela-beta3 cells assessed as decrease in cell viability after 48 hrs by MTT assay; assay type: functional, cell-based
[4] = Cytotoxicity against human A2780AD cells assessed as decrease in cell viability after 48 hrs by MTT assay; assay type: functional, cell-based
Bos taurus [5] = organism: Bos taurus; assay: Displacement of Flutax-2 from calf brain microtubule after 20 mins by fluorescence polarization assay relative to paclitaxel
[6] = Resistance index, ratio of IC50 for human A2780AD cells to IC50 for human A2780 cells; assay type: functional
A2780 = assay: Cytotoxicity against human A2780 cells assessed as decrease in cell viability after 48 hrs by MTT assay; assay type: functional, cell-based; conditions: A2780, 48 h
KB-V1 = assay: Cytotoxicity against human KBV1 cells assessed as decrease in cell viability after 48 hrs by MTT assay; assay type: functional, cell-based; conditions: KB-V1, 48 h
HeLa [7] = assay: Cell cycle arrest in human HeLa cells assessed as concentration at which maximal accumulation at G2/M phase after 20 hrs by propidium iodide staining-based flow cytometric method; assay type: functional
[8] = Cytotoxicity against human Hela-beta3 cells assessed as decrease in cell viability after 48 hrs in presence of beta-3 tubulin siRNA by MTT assay; assay type: functional, cell-based
HeLa [9] = assay: Ratio of IC50 for human HeLa cells harboring beta-3 tubulin siRNA to IC50 for human HeLa cells; assay type: functional
Bos taurus [10] = organism: Bos taurus; assay: Induction of calf brain microtubule assembly assessed as concentration of unassembled tubulin at 25 uM incubated for 45 mins by spectrophotometric method (reference value: >20 uM)
KB = assay: Cytotoxicity against human KB cells assessed as decrease in cell viability after 48 hrs by MTT assay; assay type: functional, cell-based
[11] = Resistance index, ratio of IC50 for human KBV1 cells to IC50 for human KB cells; assay type: functional
[12] = Cell cycle arrest in human Hela-beta3 cells assessed as concentration at which maximal accumulation at G2/M phase after 20 hrs by propidium iodide staining-based flow cytometric method; assay type: functional
[13] = Potency index, ratio of paclitaxel IC50 to test compound IC50 for human A2780AD cells; assay type: functional

Compound: CO/C1=C(\C)[C@@H]([C@]2(OC(C)=O)CO[C@@H]2CCO)[C@H](OC(=O)c2ccccc2)[C@]2(O)C[C@H](OC(=O)[C@H](O)[C@@H](NC(=O)c3ccccc3)c3ccccc3)C(C)=C(C1=O)C2(C)C
Ratio IC50 [1]: 12.3
IC50 (HeLa [2]): 0.312 µM
IC50 [3]: 3.84 µM

Compound: CC(=O)O[C@H]1C(=O)[C@@]2(C)[C@H]([C@H](OC(=O)c3ccccc3)[C@]3(O)C[C@H](OC(=O)[C@H](O)[C@@H](NC(=O)c4ccccc4)c4ccccc4)C(C)=C1C3(C)C)[C@]1(OC(C)=O)CO[C@@H]1C[C@@H]2O [PACLITAXEL]
Ratio IC50 [1]: 19.6 - 31.8
IC50 (KB-V1): 9.8 µM
IC50 [4]: 1.28 to 4.55 µM
Activity (HeLa [7]): 35 nM
IC50 [8]: 0.009 µM
Ratio IC50 (HeLa [9]): 4
Unassembled tubulin concentration (Bos taurus [10]): 5.36 µM
IC50 (KB): 0.0019 µM
Ratio IC50 [6]: 759 - 1198
IC50 (HeLa [2]): 0.0011 to 0.0013 µM
Ratio IC50 [11]: 5157
Activity [12]: 15 nM
IC50 (A2780): 0.00107 to 0.006 µM
IC50 [3]: 0.0197 to 0.034 µM

Compound: CC(=O)O[C@@]1([C@@H]2/C(C)=C(/O)C(=O)C3=C(C)[C@@H](OC(=O)[C@H](O)[C@@H](NC(=O)c4ccccc4)c4ccccc4)C[C@@](O)([C@H]2OC(=O)c2cccc(N=[N+]=[N-])c2)C3(C)C)CO[C@@H]1CCO
Ratio IC50 [1]: 209
IC50 (KB-V1): 5.1 µM
IC50 [4]: > 5 µM
Activity (HeLa [7]): 55 nM
fold change (FC) (Bos taurus [5]): 1.18
Unassembled tubulin concentration (Bos taurus [10]): 3.82 µM
IC50 (KB): 0.0051 µM
IC50 (HeLa [2]): 0.001 µM
Ratio IC50 [11]: 1000
Activity [12]: 20 nM
IC50 (A2780): 0.0016 µM
IC50 [3]: 0.209 µM

Compound: CC(=O)O[C@@]1([C@@H]2/C(C)=C(/O)C(=O)C3=C(C)[C@@H](OC(=O)[C@H](O)[C@H](CC(C)C)NC(=O)OC(C)(C)C)C[C@@](O)([C@H]2OC(=O)c2cccc(N=[N+]=[N-])c2)C3(C)C)CO[C@@H]1CCO
Ratio IC50 [1]: 21
IC50 (KB-V1): 0.503 µM
IC50 [4]: 0.096 µM
Activity (HeLa [7]): 20 nM
fold change (FC) (Bos taurus [5]): 2.17
Unassembled tubulin concentration (Bos taurus [10]): 3.63 µM
IC50 (KB): 0.0052 µM
Ratio IC50 [6]: 23.4
IC50 (HeLa [2]): 0.0009 µM
Ratio IC50 [11]: 97
Activity [12]: 10 nM
IC50 (A2780): 0.0041 µM
IC50 [3]: 0.019 µM

Compound: CC(=O)O[C@@]12CO[C@@H]1CCOC/C=C/CO/C1=C(\C)[C@@H]2[C@H](OC(=O)c2cccc(N=[N+]=[N-])c2)[C@]2(O)C[C@H](OC(=O)[C@H](O)[C@@H](NC(=O)c3ccccc3)c3ccccc3)C(C)=C(C1=O)C2(C)C
Ratio IC50 [1]: 64
IC50 (KB-V1): 0.094 µM
IC50 [4]: 0.032 µM
Activity (HeLa [7]): 25 nM
fold change (FC) (Bos taurus [5]): 1.15
Unassembled tubulin concentration (Bos taurus [10]): 2.34 µM
IC50 (KB): 0.015 µM
Ratio IC50 [6]: 11.4
IC50 (HeLa [2]): 0.0007 µM
Ratio IC50 [11]: 6.2
Activity [12]: 15 nM
IC50 (A2780): 0.0028 µM
IC50 [3]: 0.045 µM

Compound: CC(=O)O[C@@]12CO[C@@H]1CCOCCCCCCO/C1=C(\C)[C@@H]2[C@H](OC(=O)c2ccccc2)[C@]2(O)C[C@H](OC(=O)[C@H](O)[C@@H](NC(=O)c3ccccc3)c3ccccc3)C(C)=C(C1=O)C2(C)C
Ratio IC50 [1]: 5.3
fold change (FC) (Bos taurus [5]): 0.61
IC50 (HeLa [2]): 0.022 µM
IC50 [3]: 0.118 µM

Compound: COCC[C@H]1OC[C@@]1(OC(C)=O)[C@@H]1/C(C)=C(/O)C(=O)C2=C(C)[C@@H](OC(=O)[C@H](O)[C@@H](NC(=O)c3ccccc3)c3ccccc3)C[C@@](O)([C@H]1OC(=O)c1ccccc1)C2(C)C
Ratio IC50 [1]: 7.6
IC50 (HeLa [2]): 0.03 µM
IC50 [3]: 0.226 µM

Compound: CC(=O)O[C@@]1([C@@H]2/C(C)=C(/O)C(=O)C3=C(C)[C@@H](OC(=O)[C@H](O)[C@H](CC(C)C)NC(=O)OC(C)(C)C)C[C@@](O)([C@H]2OC(=O)c2ccccc2)C3(C)C)CO[C@@H]1CCO
Ratio IC50 [1]: 10
IC50 (KB-V1): 0.255 µM
IC50 [4]: 0.893 µM
Activity (HeLa [7]): 15 nM
fold change (FC) (Bos taurus [5]): 0.132
Unassembled tubulin concentration (Bos taurus [10]): 3.2 µM
IC50 (KB): 0.0066 µM
Ratio IC50 [6]: 207
IC50 (HeLa [2]): 0.0033 µM
Ratio IC50 [11]: 38.7
Activity [12]: 15 nM
IC50 (A2780): 0.0043 µM
IC50 [3]: 0.033 µM

Compound: CC(=O)O[C@@]12CO[C@@H]1CCOCCCCCO/C1=C(\C)[C@@H]2[C@H](OC(=O)c2ccccc2)[C@]2(O)C[C@H](OC(=O)[C@H](O)[C@@H](NC(=O)c3ccccc3)c3ccccc3)C(C)=C(C1=O)C2(C)C
Ratio IC50 [1]: 6
IC50 [4]: 1.4 µM
fold change (FC) (Bos taurus [5]): 1.3
IC50 [8]: 0.0052 µM
Ratio IC50 (HeLa [9]): 1.5
Ratio IC50 [6]: 55
IC50 (HeLa [2]): 0.0033 µM
IC50 (A2780): 0.0254 µM
Ratio IC50 [13]: 2 - 3
IC50 [3]: 0.0133 to 0.02 µM

Compound: COc1cccc(C(=O)O[C@H]2[C@H]([C@]3(OC(C)=O)CO[C@@H]3CCO)/C(C)=C(/O)C(=O)C3=C(C)[C@@H](OC(=O)[C@H](O)[C@H](CC(C)C)NC(=O)OC(C)(C)C)C[C@]2(O)C3(C)C)c1
Ratio IC50 [1]: 33.6
IC50 (KB-V1): 3.4 µM
IC50 [4]: 1.43 µM
Activity (HeLa [7]): 80 nM
fold change (FC) (Bos taurus [5]): 1.28
Unassembled tubulin concentration (Bos taurus [10]): 16.6 µM
IC50 (KB): 0.0029 µM
Ratio IC50 [6]: 279
IC50 (HeLa [2]): 0.0021 µM
Ratio IC50 [11]: 1172
Activity [12]: 25 nM
IC50 (A2780): 0.0051 µM
IC50 [3]: 0.072 µM

Compound: CC(=O)O[C@@]1([C@@H]2/C(C)=C(/O)C(=O)C3=C(C)[C@@H](OC(=O)[C@H](O)[C@@H](NC(=O)c4ccccc4)c4ccccc4)C[C@@](O)([C@H]2OC(=O)c2ccccc2)C3(C)C)CO[C@@H]1CCO
Ratio IC50 [1]: 15.6
IC50 [4]: > 10 µM
fold change (FC) (Bos taurus [5]): 0.1
Ratio IC50 [6]: >35.4
IC50 (HeLa [2]): 0.192 µM
IC50 (A2780): 0.282 µM
IC50 [3]: 2.98 µM

Continued, in another order:

fold change (FC) (Bos taurus [5]): 0.96
Compound: CC(=O)O[C@@]12CO[C@@H]1CCOC/C=C\CCO/C1=C(\C)[C@@H]2[C@H](OC(=O)c2ccccc2)[C@]2(O)C[C@H](OC(=O)[C@H](O)[C@@H](NC(=O)c3ccccc3)c3ccccc3)C(C)=C(C1=O)C2(C)C
Ratio IC50 [1]: 5.1
IC50 [4]: 2.19 µM
Ratio IC50 [6]: 87.4
IC50 (HeLa [2]): 0.0067 µM
IC50 (A2780): 0.0251 µM
IC50 [3]: 0.034 µM

fold change (FC) (Bos taurus [5]): 0.89
Compound: CC(=O)O[C@@]12CO[C@@H]1CCOCCCCO/C1=C(\C)[C@@H]2[C@H](OC(=O)c2ccccc2)[C@]2(O)C[C@H](OC(=O)[C@H](O)[C@@H](NC(=O)c3ccccc3)c3ccccc3)C(C)=C(C1=O)C2(C)C
Ratio IC50 [1]: 6.9
IC50 (HeLa [2]): 0.008 µM
IC50 [3]: 0.058 µM

fold change (FC) (Bos taurus [5]): 0.17
Compound: CC(=O)O[C@@]12CO[C@@H]1CCOC/C=C/CCCO/C1=C(\C)[C@@H]2[C@H](OC(=O)c2ccccc2)[C@]2(O)C[C@H](OC(=O)[C@H](O)[C@@H](NC(=O)c3ccccc3)c3ccccc3)C(C)=C(C1=O)C2(C)C
Ratio IC50 [1]: 2.2
IC50 (HeLa [2]): 0.126 µM
IC50 [3]: 0.282 µM

fold change (FC) (Bos taurus [5]): 0.23
Compound: CC(=O)O[C@@]12CO[C@@H]1CCOC/C=C/CCO/C1=C(\C)[C@@H]2[C@H](OC(=O)c2ccccc2)[C@]2(O)C[C@H](OC(=O)[C@H](O)[C@@H](NC(=O)c3ccccc3)c3ccccc3)C(C)=C(C1=O)C2(C)C
Ratio IC50 [1]: 5.7
IC50 (HeLa [2]): 0.0279 µM
IC50 [3]: 0.158 µM

fold change (FC) (Bos taurus [5]): 0.96
Compound: CC(=O)O[C@@]12CO[C@@H]1CCOC/C=C/CO/C1=C(\C)[C@@H]2[C@H](OC(=O)c2ccccc2)[C@]2(O)C[C@H](OC(=O)[C@H](O)[C@@H](NC(=O)c3ccccc3)c3ccccc3)C(C)=C(C1=O)C2(C)C
Ratio IC50 [1]: 7.5
IC50 [4]: 1.72 µM
Ratio IC50 [6]: 77.1
IC50 (HeLa [2]): 0.0035 µM
IC50 (A2780): 0.0223 µM
IC50 [3]: 0.026 µM
